Measurements from patent publication US20110201818A1, “POLO-LIKE KINASE INHIBITORS” (TAKEDA PHARMACEUTICAL COMPANY LIMITED, priority 2007, published 2011).

Key:
[1] = biological target: T1, human PLK1 (Homo sapiens, UniProt P53350); assay: PLK1 in vitro enzymatic activity assay (phosphorylation of alpha casein by recombinant PLK1); assay type: biochemical; conditions: recombinant FLAG-tagged PLK1, alpha casein substrate, 500 nmol/L ATP, 40 min at room temperature; read-out: pIC50 (PLK1) (converted)
T1 construct: FLAG (DYKDDDDK) (N); made in house; host or cells: Sf21 insect cells, recombinant baculovirus (pFASTBAC1, Bac-to-Bac)
T1 sequence (P53350 with tags, fused parts or gaps): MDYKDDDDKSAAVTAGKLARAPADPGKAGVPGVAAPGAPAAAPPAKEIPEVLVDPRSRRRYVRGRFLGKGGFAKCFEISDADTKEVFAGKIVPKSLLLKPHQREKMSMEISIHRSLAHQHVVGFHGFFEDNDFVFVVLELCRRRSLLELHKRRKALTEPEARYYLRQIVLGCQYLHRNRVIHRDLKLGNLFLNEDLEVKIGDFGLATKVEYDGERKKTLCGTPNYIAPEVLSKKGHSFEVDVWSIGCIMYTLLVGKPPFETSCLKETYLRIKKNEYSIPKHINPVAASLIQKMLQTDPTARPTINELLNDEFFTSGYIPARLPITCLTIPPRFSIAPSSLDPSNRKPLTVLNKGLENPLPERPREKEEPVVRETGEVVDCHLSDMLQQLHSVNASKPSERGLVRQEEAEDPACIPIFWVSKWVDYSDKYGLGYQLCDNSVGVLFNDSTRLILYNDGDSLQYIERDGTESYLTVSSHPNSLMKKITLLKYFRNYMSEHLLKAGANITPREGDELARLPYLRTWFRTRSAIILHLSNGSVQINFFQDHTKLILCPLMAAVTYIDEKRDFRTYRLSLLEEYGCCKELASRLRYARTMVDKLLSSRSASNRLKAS
Procedure, shortened: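 Recombinant PLK1 from baculovirus-infected Sf21 cells (50 ng) phosphorylated 3 μg alpha casein for 40 min at room temperature in HEPES pH 7.5, Mg acetate, DTT buffer with 500 nmol/L ATP plus [γ-32P]ATP. TCA-precipitated phosphoprotein was filter-captured, washed, and counted by scintillation.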

| SMILES | melting point [°C] | IC50 [1] [nM] |
| --- | --- | --- |
| COc1cc(C(=O)NC2CCC(N(C)C)CC2)ccc1Nc1ncc2c(n1)N(C1CCCCC1)CC(F)(F)C(=O)N2C (stereo not drawn) [Compound 49, 4-(9-cyclohexyl-7,7-difluoro-5-methyl-6-oxo-6,7,8,9-tetrahydro-5H-pyrimido[4,5-b][1,4]diazepin-2-ylamino)-N-(4-(dimethylamino)cyclohexyl)-3-methoxybenzamide] | 208 to 214 | ≤ 2 |
| COc1cc(C(=O)N[C@@H]2CCN(C)C2)ccc1Nc1ncc2c(n1)N(C1CCCCC1)CC(F)(F)C(=O)N2C [Compound 39, (R)-4-(9-cyclohexyl-7,7-difluoro-5-methyl-6-oxo-6,7,8,9-tetrahydro-5H-pyrimido[4,5-b][1,4]diazepin-2-ylamino)-3-methoxy-N-(1-methylpyrrolidin-3-yl)benzamide] | 98 to 99 | > 2 |
| COc1cc(C(=O)NN2CCN(C3CCCC3)CC2)ccc1Nc1ncc2c(n1)N(C1CCCCC1)CC(F)(F)C(=O)N2C [Compound 52, 4-(9-cyclohexyl-7,7-difluoro-5-methyl-6-oxo-6,7,8,9-tetrahydro-5H-pyrimido[4,5-b][1,4]diazepin-2-ylamino)-N-(4-cyclopentylpiperazin-1-yl)-3-methoxybenzamide] | 98 to 99 | > 2 |
| COc1cc(C(=O)N[C@@H]2CCNC2)ccc1Nc1ncc2c(n1)N(C1CCCCC1)CC(F)(F)C(=O)N2C [Compound 73, (R)-4-(9-cyclohexyl-7,7-difluoro-5-methyl-6-oxo-6,7,8,9-tetrahydro-5H-pyrimido[4,5-b][1,4]diazepin-2-ylamino)-3-methoxy-N-(pyrrolidin-3-yl)benzamide] | 195 to 198 | ≤ 2 |
| C=CC1(F)CN(C2CCCC2)c2nc(Nc3ccc(C(=O)N[C@@H]4CCCNC4)cc3OC)ncc2N(C)C1=O (stereo partly drawn) [Compound 102, 4-(9-cyclopentyl-7-fluoro-5-methyl-6-oxo-7-vinyl-6,7,8,9-tetrahydro-5H-pyrimido[4,5-b][1,4]diazepin-2-ylamino)-3-methoxy-N—((R)-piperidin-3-yl)benzamide] | 169 to 172 | ≤ 2 |
| COc1cc(C(=O)NC2CN(C)C2)ccc1Nc1ncc2c(n1)N(C1CCCC1)CC(F)(F)C(=O)N2C [Compound 4, 4-(9-Cyclopentyl-7,7-difluoro-5-methyl-6-oxo-6,7,8,9-tetrahydro-5H-pyrimido[4,5-b][1,4]diazepin-2-ylamino)-3-methoxy-N-(1-methylazetidin-3-yl)benzamide] | 157 to 162 | ≤ 2 |
| COc1cc(C(=O)N[C@H]2CCNC2)ccc1Nc1ncc2c(n1)N(C1CCCCC1)CC(F)(F)C(=O)N2C [Compound 72, (S)-4-(9-cyclohexyl-7,7-difluoro-5-methyl-6-oxo-6,7,8,9-tetrahydro-5H-pyrimido[4,5-b][1,4]diazepin-2-ylamino)-3-methoxy-N-(pyrrolidin-3-yl)benzamide] | 258 to 263 | ≤ 2 |
| COc1cc(C(=O)NC2CCN(CC(F)(F)F)CC2)ccc1Nc1ncc2c(n1)N(C1CCCCC1)CC(F)(F)C(=O)N2C [Compound 50, 4-(9-cyclohexyl-7,7-difluoro-5-methyl-6-oxo-6,7,8,9-tetrahydro-5H-pyrimido[4,5-b][1,4]diazepin-2-ylamino)-3-methoxy-N-(1-(2,2,2-trifluoroethyl)piperidin-4-yl)benzamide] | 213 to 215 | ≤ 2 |
| COc1cc(C(=O)NC2CCN(C(=O)CN(C)C)CC2)ccc1Nc1ncc2c(n1)N(C1CCCCC1)CC(F)(F)C(=O)N2C [Compound 71, 4-(9-cyclohexyl-7,7-difluoro-5-methyl-6-oxo-6,7,8,9-tetrahydro-5H-pyrimido[4,5-b][1,4]diazepin-2-ylamino)-N-(1-(2-(dimethylamino)acetyl)piperidin-4-yl)-3-methoxybenzamide] | 190 to 191 | ≤ 2 |
| COc1cc(C(=O)NC2CN(C)C2)ccc1Nc1ncc2c(n1)N(C1CCCCC1)CC(C)(F)C(=O)N2C (stereo not drawn) [Compound 90, 4-(9-Cyclohexyl-7-fluoro-5,7-dimethyl-6-oxo-6,7,8,9-tetrahydro-5H-pyrimido[4,5-b][1,4]diazepin-2-ylamino)-3-methoxy-N-(1-methylazetidin-3-yl)benzamide] | – | ≤ 2 |
| COc1cc(C(=O)N[C@@H]2CCCC[C@H]2O)ccc1Nc1ncc2c(n1)N(C1CCCCC1)CC(F)(F)C(=O)N2C (racemic) [Compound 48, 4-(9-cyclohexyl-7,7-difluoro-5-methyl-6-oxo-6,7,8,9-tetrahydro-5H-pyrimido[4,5-b][1,4]diazepin-2-ylamino)-N-((trans)-2-hydroxycyclohexyl)-3-methoxybenzamide] | – | ≤ 2 |
| COc1cc(C(=O)N[C@H]2CN3CCC2CC3)ccc1Nc1ncc2c(n1)N(C1CCCCC1)CC(F)(F)C(=O)N2C [Compound 45, (R)-4-(9-cyclohexyl-7,7-difluoro-5-methyl-6-oxo-6,7,8,9-tetrahydro-5H-pyrimido[4,5-b][1,4]diazepin-2-ylamino)-3-methoxy-N-(quinuclidin-3-yl)benzamide] | – | ≤ 2 |
| COc1cc(C(=O)NC2CCN(CCO)CC2)c(F)cc1Nc1ncc2c(n1)N(C1CCCC1)CC(F)(F)C(=O)N2C [Compound 117, 4-(9-Cyclopentyl-7,7-difluoro-5-methyl-6-oxo-6,7,8,9-tetrahydro-5H-pyrimido[4,5-b][1,4]diazepin-2-ylamino)-2-fluoro-N-(1-(2-hydroxyethyl)piperidin-4-yl)-5-methoxybenzamide] | – | ≤ 2 |
| COc1cc(C(=O)N[C@H]2CC[C@H](OP(=O)(O)O)CC2)ccc1Nc1ncc2c(n1)N(C1CCCCC1)CC(F)(F)C(=O)N2C [Compound 41, (1R,4R)-4-(4-(9-cyclohexyl-7,7-difluoro-5-methyl-6-oxo-6,7,8,9-tetrahydro-5H-pyrimido[4,5-b][1,4]diazepin-2-ylamino)-3-methoxybenzamido)cyclohexyl dihydrogen phosphate] | – | ≤ 2 |
| CN1CCC(NC(=O)c2ccc(Nc3ncc4c(n3)N(C3CCCC3)CC(F)(F)C(=O)N4C)c(OC(F)(F)F)c2)CC1 [Compound 25, 4-(9-Cyclopentyl-7,7-difluoro-5-methyl-6-oxo-6,7,8,9-tetrahydro-5H-pyrimido[4,5-b][1,4]diazepin-2-ylamino)-N-(1-methylpiperidin-4-yl)-3-(trifluoromethoxy)-benzamide] | – | > 2 |
| CCC1(F)CN(C2CCCC2)c2nc(Nc3ccc(C(=O)NC4CN(C)C4)cc3OC)ncc2N(C)C1=O (stereo not drawn) [Compound 95, 4-(9-Cyclopentyl-7-ethyl-7-fluoro-5-methyl-6-oxo-6,7,8,9-tetrahydro-5H-pyrimido[4,5-b][1,4]diazepin-2-ylamino)-3-methoxy-N-(1-methylazetidin-3-yl)benzamide] | – | ≤ 2 |
| COc1c(Nc2ncc3c(n2)N(C2CCCC2)CC(F)(F)C(=O)N3C)ccc(C(=O)O)c1F [Compound 123, 4-(9-Cyclopentyl-7,7-difluoro-5-methyl-6-oxo-6,7,8,9-tetrahydro-5H-pyrimido[4,5-b][1,4]diazepin-2-ylamino)-2-fluoro-3-methoxybenzoic acid] | – | > 2 |
| COc1ccc(F)cc1Nc1ncc2c(n1)N(C1CCCC1)CC(F)(F)C(=O)N2C [Compound 120, 9-Cyclopentyl-7,7-difluoro-2-(5-fluoro-2-methoxyphenylamino)-5-methyl-8,9-dihydro-5H-pyrimido[4,5-b][1,4]diazepin-6(7H)-one] | – | > 2 |
| COc1cc(C(=O)NN2CCN(C)CC2)ccc1Nc1ncc2c(n1)N(C1CCCC1)CC(F)(F)C(=O)N2C [Compound 6, 4-(9-cyclopentyl-7,7-difluoro-5-methyl-6-oxo-6,7,8,9-tetrahydro-5H-pyrimido[4,5-b][1,4]diazepin-2-ylamino)-3-methoxy-N-(4-methylpiperazin-1-yl)benzamide] | 168 to 174 | – |
| COc1cc(C(=O)N[C@@H]2CN3CCC2CC3)ccc1Nc1ncc2c(n1)N(C1CCCCC1)CC(F)(F)C(=O)N2C [Compound 46, (S)-4-(9-cyclohexyl-7,7-difluoro-5-methyl-6-oxo-6,7,8,9-tetrahydro-5H-pyrimido[4,5-b][1,4]diazepin-2-ylamino)-3-methoxy-N-(quinuclidin-3-yl)benzamide] | – | > 2 |
| CCOc1cc(C(=O)NC2CCN(C)CC2)ccc1Nc1ncc2c(n1)N(C1CCCC1)CC(F)(F)C(=O)N2C [Compound 29, 4-(9-Cyclopentyl-7,7-difluoro-5-methyl-6-oxo-6,7,8,9-tetrahydro-5H-pyrimido[4,5-b][1,4]diazepin-2-ylamino)-3-ethoxy-N-(1-methylpiperidin-4-yl)benzamide] | – | > 2 |
| COc1cc(C(=O)N[C@@H]2CCCNC2)ccc1Nc1ncc2c(n1)N(C1CCCCC1)CC(F)(F)C(=O)N2C [Compound 38, (R)-4-(9-cyclohexyl-7,7-difluoro-5-methyl-6-oxo-6,7,8,9-tetrahydro-5H-pyrimido[4,5-b][1,4]diazepin-2-ylamino)-3-methoxy-N-(piperidin-3-yl)benzamide] | – | ≤ 2 |
| COc1cc(C(=O)NC2CN(C3CCCC3)C2)c(F)cc1Nc1ncc2c(n1)N(C1CCCC1)CC(F)(F)C(=O)N2C [Compound 133, 4-(9-cyclopentyl-7,7-difluoro-5-methyl-6-oxo-6,7,8,9-tetrahydro-5H-pyrimido[4,5-b][1,4]diazepin-2-ylamino)-N-(1-cyclopentylazetidin-3-yl)-2-fluoro-5-methoxybenzamide] | – | ≤ 2 |
| CN1C(=O)C(F)(F)CN(C2CCCC2)c2nc(Nc3ccc4c(c3)NC(=O)CO4)ncc21 [Compound 18, 6-(9-cyclopentyl-7,7-difluoro-5-methyl-6-oxo-6,7,8,9-tetrahydro-5H-pyrimido[4,5-b][1,4]diazepin-2-ylamino)-2H-benzo[b][1,4]oxazin-3(4H)-one] | – | > 2 |
